Source: patent publication US12178875B2, “Lymphatic system-directing lipid prodrugs” (Seaport Therapeutics, Inc., priority 2017, dated 2024)

Experiments:
[1] = Lymphatic transport assay in mesenteric lymph-duct cannulated rats; assay type: in vivo, rat; details: total MPA related compound, intraduodenal infusion, anaesthetised mesenteric lymph-duct cannulated rats; class symbols
Experimental: In order to assess the lymphatic transport of disclosed lipid prodrugs in rats, the mesenteric lymph ducts of the rats used in this study were cannulated to allow continual collection of mesenteric lymph. Lipid formulations containing the compound of interest were then administered to the animals, lymph was collected, and drug concentrations in the lymph samples were quantified.
Lipid-based formulations of the compounds of the invention or control compounds were prepared as previously described (Trevaskis, N. L. et al., Pharmaceutical Research, 2005, 22(11), 1863-1870, WO 2016/023082, and WO 2017/041139, hereby incorporated by reference.
In brief, either 1 or 2 mg of test prodrug, 40 mg oleic acid and 25 mg Tween 80 were mixed in a glass vial and incubated at 37° C. for 12-18 h to equilibrate. An aqueous phase consisting of 5.6 ml phosphate buffered saline (PBS, pH 7.4) was subsequently added to the lipid phase (MPA was dissolved in PBS for the preparation of MPA containing formulations) and the formulation emulsified by ultrasonication with a Misonix XL 2020 ultrasonic processor (Misonix, Farmingdale, NY, USA) equipped with a 3.2-mm microprobe tip running at 30% of the maximal amplitude of […] and a frequency of 20 kHz for 2 min at room temperature. Doses for administering to more than one animal can be prepared in one batch by suitably increasing the quantities given above. Drug/prodrug concentrations in all formulations were verified using HPLC-MS.
Male Sprague-Dawley (SD) rats were selected for the lymphatic transport studies involving mycophenolic acid lipid prodrugs. Depending on the therapeutic agent, male, female, or both may be selected for study. Rats (typically 240-320 g) were maintained on a standard diet and fasted overnight with free access to water prior to experiments.
Anesthetized rats were placed on a heated pad at 37° C. and cannulas inserted into the duodenum (for formulation administration and rehydration), mesenteric lymph duct (for lymph collection), and carotid artery (in cases where blood collection was conducted). Post-surgery, rats were re-hydrated for 0.5 h via intraduodenal infusion of normal saline at 2.8 mL/h. […] The collection tubes were changed hourly and lymph flow was measured gravimetrically. […]
Drug concentration in lymph is expressed as total drug and includes free drug and drug associated with different glycerides. […]
Transport of compounds into lymph during each hourly collection period was calculated from the product of the volume of lymph collected and the measured concentrations in lymph. For fluorescently-labelled compounds such as a BDP-conjugate, the concentrations of total compound may be measured by fluorescence spectroscopy without hydrolysis. […]

[2] = mice, oral, multiple dose study: 2 times daily for 2 days, samples on the 3rd day (FIG. 8A/8B)
Experimental: This experiment included a single and multiple dose study. In the multiple dose study, dosing of either free MPA or MPA-2-TG (MPA-I-34, structure below) 2 times daily was performed for 2 days followed by collecting samples from mesenteric or peripheral lymph nodes on the 3rd day after dosing.
The concentrations of free MPA were measured for both groups of mice.

[3] = In vitro release of therapeutic agent from prodrugs in plasma supplemented with lipoprotein lipase; assay type: in vitro ADME, rat
Experimental: The percentage of MPA released at 60 minutes in LPL-supplemented rat plasma was also determined for selected compounds. […] The designation “**” indicates a release % of >25% to 50%. The designation “***” indicates a release % of >50% to 75%. The designation “****” indicates a release % of >75%.
In order to probe the release of free drug from TG prodrugs in the systemic circulation, prodrugs were incubated with plasma (rat, mouse, dog, pig or human) supplemented with lipoprotein lipase (LPL, 200 IU/ml). LPL is a key enzyme required for the hydrolysis of lipoprotein associated TG in the systemic circulation and is therefore expected to be a key contributor to lipolysis of the re-esterified drug-TG construct in plasma, largely via liberation of fatty acids in the sn-1 and the sn-3 position of the TG-mimetic, prior to drug release from the 2′ position via esterase hydrolysis. LPL is […] is tethered to the luminal surface of vascular endothelial cells under physiological conditions. In the current in vitro studies, plasma was therefore supplemented with LPL to better reflect the in vivo situation. To start hydrolysis, 10 μl of LPL solution (10,000 IU/ml) was added to a mixture of 10 μl of prodrug solution (1 mg/ml dissolved in acetonitrile) and 500 μl of blank plasma. The mixture was incubated at 37° C. Samples (20 μl) of the incubation solution were taken at 0, 5, 15, 30, 60, 90, 120 and 180 minutes post-incubation and added to 180 μl of MeCN to stop lipolysis. The mixture was vortexed and centrifuged at 4500×g for 5 minutes to precipitate proteins prior to analysis. The supernatant was analyzed by HPLC-MS/MS for the potential products (MG form, acid form, and free drug) of prodrug hydrolysis.
To assess the stability and release profile of compounds of the present invention, compounds TAC-I-18 and TAC-I-20 were incubated with rat plasma and the concentrations of compounds, parent drug tacrolimus, and acid were monitored by LCMS for about three hours.

[4] = rat plasma supplemented with LPL, 180 min (FIG. 9, FIG. 10)

## CCCCCCCCCCCCCCCC(=O)OCC(COP(=O)([O-])OCC[N+](C)(C)C)OC(=O)CC/C(C)=C/Cc1c(O)c2c(c(C)c1OC)COC2=O (stereo not drawn) [MPA-I-39]
[1]
  Cumulative lymphatic transport % dose (Mean ± SD, or Range if n = 2): C (less than 1% and greater than 0.24% (<1% and >0.24%))

## CCCCCCCCCCCCCCCC(=O)OCC(COC(=O)CCCCCCCCCCCCCCC)OC(=O)CC/C(C)=C/Cc1c(O)c2c(c(C)c1OC)COC2=O [MPA-TG]
[2]
  concentrations of free MPA in mesenteric lymph nodes compared with MPA: Much higher concentrations

## CCCCCCCCCCCCCCCC(=O)OCC(COC(=O)CCCCCCCCCCCCCCC)OC(=O)CCCCCC(=O)Oc1c(C/C=C(\C)CCC(=O)OC)c(OC)c(C)c2c1C(=O)OC2 [MPA-I-19]
[1]
  Cumulative lymphatic transport % dose (Mean ± SD, or Range if n = 2): A (greater than 10% (>10%))
[3]; 60 min, n = 3 unless specified otherwise
  Percentage MPA release at 60 min in LPL supplemented rat plasma: **** (a release % of >75%)

## CCCCCCCCCCCCCCCC(=O)OCC(COC(=O)CCCCCCCCCCCCCCC)OC(=O)CC(C)COC(=O)CC/C(C)=C/Cc1c(O)c2c(c(C)c1OC)COC2=O (stereo not drawn) [MPA-I-50]
[1]
  Cumulative lymphatic transport % dose (Mean ± SD, or Range if n = 2): A (greater than 10% (>10%))

## CCCCCCCCCCCCCCCC(=O)OCC(COC(=O)CCCCCCCCCCCCCCC)OC(=O)CC(C)CCCCCCCC(C)C(=O)Oc1c(C/C=C(\C)CCC(=O)OC)c(OC)c(C)c2c1C(=O)OC2 (stereo not drawn) [MPA-I-20]
[3]; [4]
  monoglyceride (MG) peak after 180 min: almost completely disappeared

## CCCCCCCCCCCCCCCC(=O)OCC(COC(=O)CCCCCCCCCCCCCCC)OC(=O)CC(C)CCCCCCCC(C)C(=O)OCCCCC(=O)Oc1c(C/C=C(\C)CCC(=O)OC)c(OC)c(C)c2c1C(=O)OC2 (stereo not drawn) [MPA-I-22, (E)-12-(1,3-Bis(palmitoyloxy)propan-2-yl) 1-(5-((6-methoxy-5-(6-methoxy-3-methyl-6-oxohex-2-en-1-yl)-7-methyl-3-oxo-1,3-dihydroisobenzofuran-4-yl)oxy)-5-oxopentyl) 2,10-dimethyldodecanedioate]
[3]; [4]
  MPA released after 180 min: about 80%
  monoglyceride (MG) peak after 180 min: almost completely disappeared

## CCCCCCCCCCCCCCCC(=O)OCC(COC(=O)CCCCCCCCCCCCCCC)OC(=O)COC(=O)CC/C(C)=C/Cc1c(O)c2c(c(C)c1OC)COC2=O [MPA-I-46]
[1]
  Cumulative lymphatic transport % dose (Mean ± SD, or Range if n = 2): A (greater than 10% (>10%))
